Values of other authors in US20190256487A1, “HYDROXYN[…]” (BioPharmaWorks, LLC, priority 2016, published 2019).

How the values were obtained:
[1] = mice
[2] = mice; remark: listed apart in the source

N[C@@]1(c2ccccc2Cl)CCC[C@@H](O)C1=O [(2R,6R)-HNK, (2R,6R)-hydroxynorketamine]
antidepressant actions [1]: rapid and sustained antidepressant actions | ketamine-related side effects [2]: lacks ketamine-related side effects
